“Also recorded” adds a separate entry of the source.
What was measured:
washed rabbit platelets = test: Aggregation of washed rabbit platelets induced by arachidonic acid, collagen, thrombin, ADP or PAF; format: cell-based; settings: for Aggregation (%): dicentrine 150 μM
Excerpt: These fractions inhibited the aggregation of washed rabbit platelets induced by ADP, collagen, arachidonic acid and platelet-activating factor (PAF). […] Furthermore, the action potential of rat ventricular cells was prolonged by these fractions. After rechromatography on a silica gel column with n-hexane-ethylacetate (2:1), four potent compounds, dicentrine, N-methylnandigerine, N-methylovigenine and dicentrinone were obtained.
500 g of dried, ground root material Lindera oldhamu (megaphylla) Hemsl was extracted with 95% ethanol, and the extract was concentrated in vacuo and fractionated into ethanol- and ethylacetate-soluble fractions. The ethylacetate-soluble fraction was then applied to a column of silica gel and eight fractions were obtained.
(§1) Means ± S.E.M. are presented. *: P < 0.05, **: P < 0.01, ***: P < 0.00
(§2) as compared with the respective control. Concentration: arachidonic acid
(100 μM), collagen (10 μg/ml), norepinephrine (NE, 3 μM), each
(§3) At 6 min after the addition of inducer, indomethacin (50 μM) and EDTA (2 mM) were added to stop the reaction, and thromboxane B2 was assayed by RIA kits.
(§4) (100 μM), collagen (10 ug/ml), thrombin (0.1 U/ml), dicentrine (150

rat ventricular cells = test: Action potential of rat ventricular cells; format: cell-based; settings: for Tp (time to peak) / APD50 (action potential duration at 50% repolarization) / AP amplitude (initial upstroke amplitude): 3 μM; for Tp (time to peak): control 5.0 ± 0.5 (dicentrine), 5.3 ± 0.5 (quinidine); for APD50 (action potential duration at 50% repolarization): control 59.9 ± 11.3 (dicentrine), 62.6 ± 3.9 (quinidine); for AP amplitude (initial upstroke amplitude): control 138.3 ± 2.6 (dicentrine), 135.2 ± 2.2 (quinidine)
Excerpt: (§5) In rat ventricular cells, the effects of dicentrine on action potential and membrane current were studied. […] However, calcium current was less affected.
The effects of dicentrine and quinidine on action potential were compared and studied in rat ventricular cells. […] In addition to the prolongation of APD50, a depression of initial upstroke amplitude from 138.3±2.6 mV to 125.5±4.5 mV and prolongation of the time to peak amplitude from 5.0±0.5 msec to 10.0±1.9 msec were observed.
Means ± S.E.M. are presented. *: P < 0.05 as compared with the
APD50 : action potential duration measured at 50% repolarization fro
Tp : time to peak measured from the start of depolarization to the
Concentration: dicentrine (3 μM), quinidine (3 μM).

rat thoracic aorta = test: Aortic contraction induced by other agonists; settings: in words
anesthetized rats = test: Systemic hemodynamic parameters of pentobarbital-anesthetized rats; format: in vivo, rat; settings: for Blood flow: before 7 ± 4; for total peripheral resistance: dicentrine 1.0 mg/kg, prazosin 0.1 mg/kg
[1] = system: isolated thoracic aorta of rats fed with high cholesterol and high fat diet; test: Contractile force of isolated thoracic aorta from rats fed high cholesterol and high fat diet; format: in vivo, rat; settings: for contractile force: high cholesterol & fat diet, dicentrine 10 mg/kg, prazosin 5 mg/kg
rat thoracic aortae = test: Norepinephrine-induced contraction of rat thoracic aortae (phasic and tonic); settings: in words
[2] = system: Thromboxane B2 formation in washed rabbit platelets; test: Thromboxane B2 formation in washed rabbit platelets (RIA); format: cell-based; settings: for Thromboxane B2: dicentrine 150 μM
Method: as §3, §1, §2, §4

[3] = system: conscious spontaneously hypertensive (SH) and normotensive (NT) rats; test: Mean arterial pressure in conscious spontaneously hypertensive (SH) and normotensive (NT) rats; format: in vivo, rat
[4] = system: rats fed with high cholesterol and high fat diet; test: Blood cholesterol and triglyceride in rats fed high cholesterol and high fat diet; format: in vivo, rat; settings: for Cholesterol / Triglyceride: high cholesterol & fat diet, dicentrine 10 mg/kg or prazosin 5 mg/kg, oral twice a day in last week; for Cholesterol: diet control 120 ± 7.1, normal diet 62 ± 4.5; for Triglyceride: diet control 305 ± 11.1, normal diet 84 ± 5.4
guinea-pig trachea = test: Contraction and relaxation of guinea-pig trachea; settings: in words
[5] = system: α1-adrenoceptor (rat thoracic aortae); test: Schild analysis of α1-adrenoceptor antagonism: norepinephrine- and phenylephrine-induced contraction of rat thoracic aortae
Excerpt: Results are given as means ± S.E.M. or the mean with 95% confidence

[6] = system: membrane currents of rat ventricular cells; test: Voltage clamp, membrane currents in rat ventricular cells; format: cell-based
Excerpt: as §5

[7] = pentobarbital-anesthetized rats, in words
[8] = oral twice a day (10 mg/kg) in the last week, in words

SMILES: COc1cc2c(cc1OC)-c1c3c(cc4c1[C@H](C2)N(C)CC4)OCO3 [dicentrine]
- aggregation of washed rabbit platelets (washed rabbit platelets; induced by arachidonic acid and collagen, in words): inhibited
- Aggregation (%) (washed rabbit platelets; inducer arachidonic acid 100 μM, control 92 ± 1): 11 ± 7%
- Aggregation (%) (washed rabbit platelets; inducer collagen 10 ug/ml, control 94 ± 1): 51 ± 7%
- Aggregation (%) (washed rabbit platelets; inducer thrombin 0.1 U/ml, control 95 ± 2): 92 ± 2%
- Tp (time to peak) (rat ventricular cells): 10.0 ± 1.9 ms
- Tp (time to peak) (rat ventricular cells; listed as Dicentrine): 10.0 ± 1.9 ms
- APD50 (action potential duration at 50% repolarization) (rat ventricular cells): 201.9 ± 28.7 ms
- APD50 (action potential duration at 50% repolarization) (rat ventricular cells; listed as Dicentrine): 201.9 ± 28.7 ms
- AP amplitude (initial upstroke amplitude) (rat ventricular cells): 125.5±4.5 mV
- AP amplitude (initial upstroke amplitude) (rat ventricular cells; listed as Dicentrine): 125.5 ± 4.5 mV
- action potential (rat ventricular cells; stimulation frequency 0.1 Hz): prolonged
- initial upstroke amplitude (rat ventricular cells; stimulation frequency 0.1 Hz): reduced
- time to peak (rat ventricular cells; stimulation frequency 0.1 Hz): increased
- aortic contraction induced by U-46619, angiotensin II, high potassium or carbachol (rat thoracic aorta): did not affect
- Blood flow (anesthetized rats; after dicentrine 1.0 mg/kg): 200 ± 27
- CO (anesthetized rats; after dicentrine 1.0 mg/kg, before 21 ± 2): 25 ± 4 mL/min
- MAP (anesthetized rats; after dicentrine 1.0 mg/kg, before 122 ± 5): 62 ± 5 mm Hg
- HR (anesthetized rats; after dicentrine 1.0 mg/kg, before 353 ± 10): 348 ± 8 bpm
- hypotensive activity after α1-adrenoceptor blockade (anesthetized rats; after α1-adrenoceptor blockade): completely abolished
- mean arterial blood pressure (anesthetized rats; anesthetized rats, i.v. bolus 0.1-1.0 mg/kg): dose-related reduction
- duration of reduction in mean arterial blood pressure (anesthetized rats; anesthetized rats, i.v. bolus 0.1-1.0 mg/kg, throughout observation period): ≥ 2 h
- total peripheral resistance (anesthetized rats): reduction
- cardiac output (CO) (anesthetized rats; [7]): little or no change
- heart rate (HR), or stroke volume (SV) (anesthetized rats; [7]): no change
- mean arterial pressure (MAP) (anesthetized rats; [7]): decrease
- contractile force of aorta ([1]; cholesterol-triglyceride-treated rats, in words): restored the contractile force of cholesterol-triglyceride-treated rat aortae back to normal values
- maximal contractile force of isolated thoracic aorta [1, 8]: restored to normal range
- contractile force ([1]; phenylephrine 3 × 10^-6 M): 0.75 ± 0.12 g
- contractile force ([1]; phenylephrine 3 × 10^-7 M): 0.55 ± 0.07 g
- contractile force ([1]; phenylephrine 3 × 10^-8 M): 0.22 ± 0.05 g
- contractile force ([1]; phenylephrine 10^-6 M): 0.67 ± 0.11 g
- contractile force ([1]; phenylephrine 10^-7 M): 0.55 ± 0.07 g
- vasorelaxant activity in rat thoracic aorta (rat thoracic aortae): most potent vasorelaxant
- Thromboxane formations ([2]; caused by arachidonic acid, collagen and thrombin, in words): all suppressed
- Thromboxane B2 ([2]; inducer arachidonic acid 100 μM, control 445 ± 44): 19 ± 15 ng/10^8 platelets
- Thromboxane B2 ([2]; inducer collagen 10 ug/ml, control 478 ± 93): 70 ± 5 ng/10^8 platelets
- Thromboxane B2 ([2]; inducer thrombin 0.1 U/ml, control 131 ± 25): 44 ± 14 ng/10^8 platelets
- mean arterial pressure ([3]; conscious SH and NT rats): dose-related decreases in mean arterial pressure which were of a greater magnitude in SH rats than in NT rats
- duration of hypotensive effect ([3]; oral administration, conscious SH rats): over 15 hr
- serum triglyceride level ([4]; cholesterol-triglyceride-rich diet, in words): decreased
- Cholesterol [4]: 112 ± 4.6 mg/dL
- Triglyceride [4]: 108 ± 4.3 mg/dL
- blood cholesterol level [4, 8]: unchanged
- triglyceride level [4, 8]: restored to normal levels
- contraction of guinea-pig trachea caused by histamine or carbachol (guinea-pig trachea): slightly inhibited
- β-adrenoceptor relaxation to isoprenaline in trachea (guinea-pig trachea): not affected
- α1-adrenoceptor antagonism, relative potency ([5]; comparison with prazosin, yohimbine and phentolamine): less potent than prazosin; also recorded: much more potent than phentolamine or yohimbine
- effects in denuded aortae ([5]; denuded aortae): still persisted
- norepinephrine- or phenylephrine-induced vasoconstriction of rat aortae ([5]; in words): competitive antagonism
- calcium current [6]: less affected
- fast sodium inward current [6]: inhibition
- steady state outward current [6]: significant inhibition
- transient outward current [6]: significant inhibition

SMILES: COc1cc2nc(N3CCN(C(=O)c4ccco4)CC3)nc(N)c2cc1OC [prazosin, reference compound]
- Blood flow (anesthetized rats; after prazosin 0.1 mg/kg): 171 ± 14
- CO (anesthetized rats; after prazosin 0.1 mg/kg, before 27 ± 3): 32 ± 3 mL/min
- MAP (anesthetized rats; after prazosin 0.1 mg/kg, before 120 ± 4): 68 ± 6 mm Hg
- HR (anesthetized rats; after prazosin 0.1 mg/kg, before 367 ± 9): 337 ± 10 bpm
- total peripheral resistance (anesthetized rats): reduction
- cardiac output (CO) (anesthetized rats; [7]): little or no change
- mean arterial pressure (MAP) (anesthetized rats; [7]): decrease
- contractile force ([1]; phenylephrine 3 × 10^-6 M): 0.87 ± 0.12 g
- contractile force ([1]; phenylephrine 3 × 10^-7 M): 0.70 ± 0.09 g
- contractile force ([1]; phenylephrine 3 × 10^-8 M): 0.30 ± 0.05 g
- contractile force ([1]; phenylephrine 10^-6 M): 0.80 ± 0.12 g
- contractile force ([1]; phenylephrine 10^-7 M): 0.51 ± 0.08 g
- Cholesterol [4]: 112 ± 3.9 mg/dL
- Triglyceride [4]: 114 ± 9.2 mg/dL

SMILES: C=C[C@H]1C[N@@]2CC[C@H]1C[C@@H]2[C@@H](O)c1ccnc2ccc(OC)cc12 [quinidine, reference compound]
- Tp (time to peak) (rat ventricular cells): 10.8 ± 2.4 ms
- APD50 (action potential duration at 50% repolarization) (rat ventricular cells): 276.0 ± 18.6 ms
- AP amplitude (initial upstroke amplitude) (rat ventricular cells): 121.2 ± 2.3 mV

— patent US5262421A, “Use of dicentrine and its derivatives for the treatment of hypertension, arrhythmia, thrombosis and atherosclerosis” (National Science Council, priority 1991, dated 1993)
